Reference: patent publication US9029337B2, “Modulation of factor 7 expression” (Isis Pharmaceuticals, Inc., priority 2007, dated 2015)
Strand notation (5' to 3'): a small letter for the sugar, then the base; units joined by * are phosphorothioate-linked, units joined directly phosphodiester-linked; [ ] holds rarer units or linkages, { } end groups; capitals alone tell only the bases. e = 2'-O-(2-methoxyethyl) (MOE); [5mC] = 5-methylcytosine; d = 2'-deoxy (DNA)

Test system: human Factor 7 mRNA
Test: Dose-dependent antisense inhibition of human Factor 7 in HepB3 cells, electroporation
Type: cell-based
Details: 3.125 μM, approx. 16 hours (Table 15, Example 7)
Method: (§1) The gapmers were also transfected via electroporation and their dose-dependent inhibition of human Factor 7 mRNA was measured. Cells were plated at a density of 20,000 cells per well and transfected via electroporation with 3.125 μM, 6.25 μM, 12.5 μM, 25 μM, 50 μM, and 100 μM concentrations of antisense oligonucleotide, as specified in Table 15. After a treatment period of approximately 16 hours, RNA was isolated from the cells and Factor 7 mRNA levels were measured by quantitative real-time PCR. Human Factor 7 primer probe set RTS 2927 was used to measure mRNA levels. Factor 7 mRNA levels were adjusted according to total RNA content, as measured by RIBOGREEN®. Results are presented as percent inhibition of Factor 7, relative to untreated control cells.
as §1, with “Cells were” for “The gapmers were also transfected via electroporation and their dose-dependent inhibition of human Factor 7 mRNA was measured. Cells were”, “in […]. After a” for “in Table 15. After a”, “cells and human Factor 7” for “cells and Factor 7”

Substance	percent inhibition of Factor 7 mRNA, relative to untreated control cells
422215 (antisense eG*eT*eT*d[5mC]*dT*dG*d[5mC]*dA*dG*dG*dA*dG*d[5mC]*dG*dG*d[5mC]*d[5mC]*eT*eA*eA) [compound 422215]	11%

Same assay, conditions: 6.25 μM, approx. 16 hours (Table 15, Example 7)

Substance	percent inhibition of Factor 7 mRNA, relative to untreated control cells
422215 (antisense eG*eT*eT*d[5mC]*dT*dG*d[5mC]*dA*dG*dG*dA*dG*d[5mC]*dG*dG*d[5mC]*d[5mC]*eT*eA*eA) [compound 422215]	9%

Same assay, conditions: 12.5 μM, approx. 16 hours (Table 15, Example 7)

Substance	percent inhibition of Factor 7 mRNA, relative to untreated control cells
422215 (antisense eG*eT*eT*d[5mC]*dT*dG*d[5mC]*dA*dG*dG*dA*dG*d[5mC]*dG*dG*d[5mC]*d[5mC]*eT*eA*eA) [compound 422215]	31%

Same assay, conditions: 25 μM, approx. 16 hours (Table 15, Example 7)

Substance	percent inhibition of Factor 7 mRNA, relative to untreated control cells
422215 (antisense eG*eT*eT*d[5mC]*dT*dG*d[5mC]*dA*dG*dG*dA*dG*d[5mC]*dG*dG*d[5mC]*d[5mC]*eT*eA*eA) [compound 422215]	50%

Same assay, conditions: 50 μM, approx. 16 hours (Table 15, Example 7)

Substance	percent inhibition of Factor 7 mRNA, relative to untreated control cells
422215 (antisense eG*eT*eT*d[5mC]*dT*dG*d[5mC]*dA*dG*dG*dA*dG*d[5mC]*dG*dG*d[5mC]*d[5mC]*eT*eA*eA) [compound 422215]	68%

Same assay, conditions: 100 μM, approx. 16 hours (Table 15, Example 7)

Substance	percent inhibition of Factor 7 mRNA, relative to untreated control cells
422215 (antisense eG*eT*eT*d[5mC]*dT*dG*d[5mC]*dA*dG*dG*dA*dG*d[5mC]*dG*dG*d[5mC]*d[5mC]*eT*eA*eA) [compound 422215]	84%

Test system: human Factor 7 mRNA
Test: Dose-dependent antisense inhibition of human Factor 7 in HepB3 cells, lipofectin
Type: cell-based
Details: 3.125 nM, HepB3 cells, approx. 16 hours (Table 14)
In short: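 HepB3 cells (4,000/well) lipofectin-transfected with antisense oligonucleotide at 3.125 or 6.25 up to 100 nM for ~16 h. Factor 7 mRNA measured by real-time RT-PCR with primer probe set RTS 2927, adjusted to RIBOGREEN total RNA; expressed as percent inhibition versus untreated control cells.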

Substance	percent inhibition of Factor 7 mRNA, relative to untreated control cells
422215 (antisense eG*eT*eT*d[5mC]*dT*dG*d[5mC]*dA*dG*dG*dA*dG*d[5mC]*dG*dG*d[5mC]*d[5mC]*eT*eA*eA) [compound 422215]	13%

Same assay, conditions: 12.5 nM, HepB3 cells, approx. 16 hours (Table 14)

Substance	percent inhibition of Factor 7 mRNA, relative to untreated control cells
422215 (antisense eG*eT*eT*d[5mC]*dT*dG*d[5mC]*dA*dG*dG*dA*dG*d[5mC]*dG*dG*d[5mC]*d[5mC]*eT*eA*eA) [compound 422215]	54%

Same assay, conditions: 25 nM, HepB3 cells, approx. 16 hours (Table 14)

Substance	percent inhibition of Factor 7 mRNA, relative to untreated control cells
422215 (antisense eG*eT*eT*d[5mC]*dT*dG*d[5mC]*dA*dG*dG*dA*dG*d[5mC]*dG*dG*d[5mC]*d[5mC]*eT*eA*eA) [compound 422215]	65%

Same assay, conditions: 50 nM, HepB3 cells, approx. 16 hours (Table 14)

Substance	percent inhibition of Factor 7 mRNA, relative to untreated control cells
422215 (antisense eG*eT*eT*d[5mC]*dT*dG*d[5mC]*dA*dG*dG*dA*dG*d[5mC]*dG*dG*d[5mC]*d[5mC]*eT*eA*eA) [compound 422215]	84%

Same assay, conditions: 100 nM, HepB3 cells, approx. 16 hours (Table 14)

Substance	percent inhibition of Factor 7 mRNA, relative to untreated control cells
422215 (antisense eG*eT*eT*d[5mC]*dT*dG*d[5mC]*dA*dG*dG*dA*dG*d[5mC]*dG*dG*d[5mC]*d[5mC]*eT*eA*eA) [compound 422215]	82%

Same assay, conditions: HepB3 cells, approx. 16 hours (Table 14)

Substance	percent inhibition of Factor 7 mRNA, relative to untreated control cells
422215 (antisense eG*eT*eT*d[5mC]*dT*dG*d[5mC]*dA*dG*dG*dA*dG*d[5mC]*dG*dG*d[5mC]*d[5mC]*eT*eA*eA) [compound 422215]	30%

Test system: human Factor 7 mRNA
Test: Antisense inhibition of human Factor 7 mRNA in HepB3 cells, 50 nM antisense oligonucleotide, lipofectin
Type: cell-based
Details: gapmers targeted to nucleobases 4868 to 4899 of SEQ ID NO: 1, Table 8
In short: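 Seeding density was 4,000 cells per well. Following roughly 24 hours of oligonucleotide treatment, RNA was extracted and Factor 7 message quantified using the RTS 2927 primer probe set. Levels were corrected for RIBOGREEN® total RNA and expressed against untreated controls.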

Substance	% Inhibition of human Factor 7 mRNA levels
422215 (antisense eG*eT*eT*d[5mC]*dT*dG*d[5mC]*dA*dG*dG*dA*dG*d[5mC]*dG*dG*d[5mC]*d[5mC]*eT*eA*eA) [compound 422215]	73%
